Data reported in the supplement of paper PMC13380429.

How the values were obtained:
Details in all cases: 72 h
Caco-2 [1] = test: cell viability relative to DMSO; higher = less toxic
Calu-3 [2] = test: as above
HepG2 [3] = test: as above
U2OS [4] = test: as above
Vero E6 [5] = test: as above
Caco-2 [6] = test: relative viability EC50 (midpoint between 100% and the lowest measured viability); higher = less toxic
Calu-3 [7] = test: as above
HepG2 [8] = test: as above
U2OS [9] = test: as above
Vero E6 [10] = test: as above
Caco-2 [11] = test: drug sensitivity score (DSS) for viability; higher = more toxic; extreme values may be limits of the assay
Calu-3 [12] = test: as above
HepG2 [13] = test: as above
U2OS [14] = test: as above
Vero E6 [15] = test: as above

SMILES | cell viability (Caco-2 [1]; 1 nM) [%] | cell viability (Caco-2 [1]; 10 nM) [%] | cell viability (Caco-2 [1]; 100 nM) [%] | cell viability (Caco-2 [1]; 1000 nM) [%] | cell viability (Caco-2 [1]; 10000 nM) [%] | cell viability (Calu-3 [2]; 1 nM) [%] | cell viability (Calu-3 [2]; 10 nM) [%] | cell viability (Calu-3 [2]; 100 nM) [%] | cell viability (Calu-3 [2]; 1000 nM) [%] | cell viability (Calu-3 [2]; 10000 nM) [%] | cell viability (HepG2 [3]; 1 nM) [%] | cell viability (HepG2 [3]; 10 nM) [%] | cell viability (HepG2 [3]; 100 nM) [%] | cell viability (HepG2 [3]; 1000 nM) [%] | cell viability (HepG2 [3]; 10000 nM) [%] | cell viability (U2OS [4]; 1 nM) [%] | cell viability (U2OS [4]; 10 nM) [%] | cell viability (U2OS [4]; 100 nM) [%] | cell viability (U2OS [4]; 1000 nM) [%] | cell viability (U2OS [4]; 10000 nM) [%] | cell viability (Vero E6 [5]; 1 nM) [%] | cell viability (Vero E6 [5]; 10 nM) [%] | cell viability (Vero E6 [5]; 100 nM) [%] | cell viability (Vero E6 [5]; 1000 nM) [%] | cell viability (Vero E6 [5]; 10000 nM) [%] | relative viability EC50 (Caco-2 [6]) [µM] | relative viability EC50 (Calu-3 [7]) [µM] | relative viability EC50 (HepG2 [8]) [µM] | relative viability EC50 (U2OS [9]) [µM] | relative viability EC50 (Vero E6 [10]) [µM] | drug sensitivity score (Caco-2 [11]) | drug sensitivity score (Calu-3 [12]) | drug sensitivity score (HepG2 [13]) | drug sensitivity score (U2OS [14]) | drug sensitivity score (Vero E6 [15])
O=S(=O)(c1ccccc1)N(CC(F)(F)F)c1ccc(C(O)(C(F)(F)F)C(F)(F)F)cc1 | 96 | 89.8 | 93.9 | 87.5 | 87.5 | 107 | 96.5 | 99.2 | 98.2 | 99.7 | 97.1 | 107 | 94.3 | 87.4 | 78.3 | 104 | 101 | 102 | 97.7 | 96.5 | 103 | 102 | 98.1 | 101 | 98.8 | > 10 | > 10 | > 10 | > 10 | > 10 | 0.5 | 0 | 1.8 | 0 | 0
C#C[C@]1(O)CC[C@H]2[C@@H]3CCC4=CC(=NO)CC[C@@H]4[C@H]3CC[C@@]21CC (mixture of isomers) [norelgestromin] | 89 | 94.1 | 91.7 | 98.3 | 98.5 | 102 | 95.2 | 103 | 93.5 | 101 | 95.9 | 101 | 105 | 108 | 110 | 99.1 | 101 | 94.4 | 101 | 98.6 | 102 | 101 | 92 | 99.1 | 103 | > 10 | > 10 | > 10 | > 10 | > 10 | 0 | 0 | 0 | 0 | 0
CSc1ccc([C@H]2CN3CCC[C@H]3c3ccccc32)cc1 (racemic) [McN-5652-(+/-)] | 92.2 | 100 | 96.1 | 103 | 98.7 | 102 | 101 | 106 | 84.9 | 105 | 102 | 89.9 | 98.5 | 90.3 | 105 | 97.8 | 105 | 96.8 | 105 | 102 | 99.6 | 102 | 102 | 96.3 | 104 | > 10 | > 10 | > 10 | > 10 | > 10 | 0 | 0 | 0 | 0 | 0
Nc1nccc2c1ncn2C1C=C(CO)C(O)C1O (centres undefined) [3-deazaneplanocin-A] | 102 | 104 | 99.3 | 88 | 77 | 97.4 | 97.5 | 108 | 85.9 | 89.9 | 105 | 106 | 86.7 | 62.7 | 25.7 | 105 | 97.4 | 91.8 | 69.3 | 57.8 | 98.8 | 100 | 89.1 | 56.6 | 36.2 | > 10 | > 10 | 0.832 |  | 0.47 | 2 | 1 | 8.8 | 6.3 | 9.4
CC(=O)Nc1nc2c(Oc3cc(-c4ccc(C(F)(F)F)cc4)ncn3)cccc2s1 [AMG-517] | 102 | 96.5 | 103 | 97.2 | 94.4 | 104 | 86.1 | 100 | 92.4 | 92.5 | 112 | 98.3 | 95.4 | 102 | 91.8 |  |  |  |  |  | 101 | 102 | 101 | 102 | 99.4 | > 10 | > 10 | > 10 |  | > 10 | 0 | 0 | 0 |  | 0
CCOC(=O)CNC(=O)[C@@H]1CCCN1C(=O)Cc1ccccc1 [DVD-111] | 110 | 102 | 114 | 97 | 107 | 106 | 98.4 | 106 | 93.7 | 116 | 98.8 | 97.2 | 90.9 | 93.5 | 96.9 |  |  |  |  |  | 103 | 105 | 98.8 | 104 | 101 | > 10 | > 10 | > 10 |  | > 10 | 0 | 0 | 0 |  | 0
CCc1cccc(CC)c1NC(=O)c1nn(C)c2c1CCc1cnc(Nc3ccc(C(=O)NC4CCN(C)CC4)cc3OC(F)(F)F)nc1-2 [NMS-P715] |  |  |  |  |  | 91.9 | 97.7 | 98.8 | 105 | 104 | 114 | 103 | 107 | 112 | 48.2 | 95.9 | 99.7 | 98.1 | 102 | 98.7 | 104 | 88.8 | 104 | 94.7 | 84.7 |  | > 10 | 3.99 | > 10 | > 10 |  | 0 | 2.1 | 0 | 0.7
C=CCc1cccc(/C=N/NC(=O)CN2CCN(Cc3ccccc3)CC2)c1O [PAC-1] | 98.2 | 102 | 91.5 | 82.3 | 8 | 89.6 | 103 | 102 | 101 | 15.8 | 104 | 105 | 94 | 87 | 11.5 | 97.5 | 101 | 95.9 | 96.6 | 50.6 | 103 | 103 | 104 | 95.9 | 48.7 | 1.77 | 3.25 | 2 |  | 2.52 | 8 | 4.6 | 7.1 | 3.1 | 3.3
Cc1cccc(C)c1NC(=O)C[N+](C)(C)C [QX-222] | 107 | 97 | 99.1 | 100 | 112 | 102 | 93.8 | 107 | 94.9 | 106 | 106 | 103 | 99 | 95.5 | 95.8 |  |  |  |  |  | 102 | 101 | 98.7 | 105 | 99.7 | > 10 | > 10 | > 10 |  | > 10 | 0 | 0 | 0 |  | 0
CCOC(=O)c1ncn2c1CN(C)C(=O)c1cc(N=[N+]=[N-])ccc1-2 [Ro-15-4513] | 96.2 | 100 | 94.6 | 99.6 | 109 | 103 | 93.9 | 97 | 102 | 108 | 107 | 92.2 | 102 | 99.1 | 112 |  |  |  |  |  | 94.6 | 94 | 99.3 | 97.2 | 104 | > 10 | > 10 | > 10 |  | > 10 | 0 | 0 | 0 |  | 0
CCCCN(CC)c1nc(C)nc2c1c(C)c(C)n2-c1c(C)cc(C)cc1C [antalarmin] | 105 | 92.9 | 102 | 91.4 | 70.3 | 102 | 94.4 | 95.6 | 99 | 104 | 99 | 97.2 | 97.4 | 97.8 | 77.2 | 107 | 98.8 | 98.1 | 99 | 101 | 96 | 92.6 | 97.3 | 101 | 98.2 |  | > 10 | > 10 | > 10 | > 10 | 2.5 | 0 | 1.1 | 0 | 0
CCOC(=O)OC(C)OC(=O)[C@@H]1N2C(=O)[C@@H](NC(=O)[C@H](N)c3ccccc3)[C@H]2SC1(C)C (some centres undefined) [bacampicillin] | 96.3 | 94 | 95.9 | 98 | 104 | 94.1 | 82.4 | 102 | 103 | 110 | 97.6 | 114 | 103 | 100 | 94.6 |  |  |  |  |  | 91.8 | 96.7 | 97.9 | 98.1 | 98.6 | > 10 | > 10 | > 10 |  | > 10 | 0 | 0 | 0 |  | 0
C[C@@H](c1nc(-c2ccc(C#N)cc2)cs1)[C@](O)(Cn1cncn1)c1cc(F)ccc1F [isavuconazole] | 96.3 | 99.8 | 96 | 93.9 | 74.3 | 95.7 | 90.1 | 98.7 | 101 | 99.2 | 106 | 96 | 93.8 | 100 | 79.2 | 98.2 | 102 | 93.9 | 101 | 90.9 | 100 | 98 | 102 | 98.6 | 100 |  | > 10 | > 10 | > 10 | > 10 | 1.8 | 0 | 0.6 | 0 | 0
CCN(CC)C(=O)[C@@]1(c2ccccc2)C[C@H]1CN [milnacipran] | 99.9 | 87.3 | 87.5 | 99.8 | 98.7 | 106 | 93.5 | 97.9 | 95 | 97.9 | 101 | 86.7 | 98.9 | 107 | 90.9 |  |  |  |  |  | 94.6 | 102 | 97.8 | 102 | 98.2 | > 10 | > 10 | > 10 |  | > 10 | 0 | 0 | 0 |  | 0
CCOc1cc2ncc(C#N)c(Nc3ccc(F)c(Cl)c3)c2cc1NC(=O)/C=C/CN(C)C [pelitinib] | 96.9 | 96.9 | 85.8 | 64.7 | 51.2 | 88.1 | 83 | 45 | 32 | 9.5 | 107 | 99.5 | 99 | 59.7 | 40.2 | 99 | 98.9 | 93.6 | 67.7 | 5.3 | 106 | 96.4 | 87.3 | 22.6 | 7.9 |  | 0.0707 | 0.706 | 1.38 | 0.334 | 7.9 | 21.7 | 8.1 | 9.3 | 15.9
COC[C@@H](c1ccc(C(F)(F)F)cc1)N1CCN(C2(C)CCN(C(=O)c3c(C)ncnc3C)CC2)C[C@@H]1C [vicriviroc] |  |  |  |  |  | 106 | 93.6 | 104 | 96.6 | 104 | 98.8 | 101 | 98.9 | 101 | 84.8 | 100 | 94.2 | 95 | 96.6 | 95 | 95.3 | 97 | 89.9 | 95.7 | 94.7 |  | > 10 | > 10 | > 10 | > 10 |  | 0 | 0.2 | 0 | 0
